Results from patent US7772241B2, “Variolin derivatives and their use as antitumor agents” (Pharma Mar S.A., priority 2001, dated 2010).
Like-named read-outs stand apart in the source and are kept apart here.

Tests used:
IGROV-1 = experiment: Inhibition of cells growth by colorimetric (SRB) assay, IGROV-1; conditions: for GI50 / CC50: Homo sapiens, IGROV-1, 48 h; for GI50: read-out: GI50 IGROV, SRB assay, 48 hours exposure; for TGI IGROV: SRB assay, 48 hours exposure
Procedure, shortened: (§1)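 Read-out is sulforhodamine B protein stain (OD 490 nm) after cold TCA fixation, following 48 h continuous exposure to samples spanning 10 to 10^−8 μg/ml.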

PANC-1 = experiment: Inhibition of cells growth by colorimetric (SRB) assay, PANC-1; conditions: Homo sapiens, PANC-1, 48 h, read-out: GI50 PANC-1, SRB assay, 48 hours exposure
Procedure, shortened: as §1

SK-MEL-28 = experiment: Inhibition of cells growth by colorimetric (SRB) assay, SK-MEL-28; conditions: for GI50 / CC50: Homo sapiens, SK-MEL-28, 48 h; for GI50: read-out: GI50 MEL-28, SRB assay, 48 hours exposure; for TGI MEL-28: SRB assay, 48 hours exposure
Procedure, shortened: as §1

K-562 = experiment: Inhibition of cells growth by colorimetric (SRB) assay, K-562; conditions: for GI50 / CC50: Homo sapiens, K562, 48 h; for GI50: read-out: GI50 K-562, SRB assay, 48 hours exposure; for TGI K-562: SRB assay, 48 hours exposure
Procedure, shortened: as §1

IGROV-ET = experiment: Inhibition of cells growth by colorimetric (SRB) assay, IGROV-ET; conditions: for GI50 / CC50: Homo sapiens, 48 h; for GI50: read-out: GI50 IGROV-ET, SRB assay, 48 hours exposure; for TGI IGROV-ET: SRB assay, 48 hours exposure
Procedure, shortened: as §1

SK-OV-3 = experiment: Inhibition of cells growth by colorimetric (SRB) assay, SK-OV-3; conditions: for GI50 / CC50: Homo sapiens, SK-OV-3, 48 h; for GI50: read-out: GI50 SKOV-3, SRB assay, 48 hours exposure; for TGI SKOV-3: SRB assay, 48 hours exposure
Procedure, shortened: as §1

DU-145 = experiment: Inhibition of cells growth by colorimetric (SRB) assay, DU-145; conditions: for GI50 / CC50: Homo sapiens, DU-145, 48 h; for GI50: read-out: GI50 DU-145, SRB assay, 48 hours exposure; for TGI DU-145: SRB assay, 48 hours exposure
Procedure, shortened: as §1

SK-BR-3 = experiment: Inhibition of cells growth by colorimetric (SRB) assay, SK-BR-3; conditions: for GI50 / CC50: Homo sapiens, SK-BR-3, 48 h; for GI50: read-out: GI50 SK-BR-3, SRB assay, 48 hours exposure; for TGI SK-BR-3: SRB assay, 48 hours exposure
Procedure, shortened: as §1

A-549 = experiment: Inhibition of cells growth by colorimetric (SRB) assay, A-549; conditions: for GI50 / CC50: Homo sapiens, A549, 48 h; for GI50: read-out: GI50 A-549, SRB assay, 48 hours exposure; for TGI A-549: SRB assay, 48 hours exposure
Procedure, shortened: as §1

LNCaP = experiment: Inhibition of cells growth by colorimetric (SRB) assay, LNCaP; conditions: for GI50 / CC50: Homo sapiens, LNCaP, 48 h; for GI50: read-out: GI50 LN-caP, SRB assay, 48 hours exposure; for TGI LN-caP: SRB assay, 48 hours exposure
Procedure, shortened: as §1

HMEC1 = experiment: Inhibition of cells growth by colorimetric (SRB) assay, HMEC1; conditions: for GI50: Homo sapiens, HMEC-1, 48 h, read-out: GI50 H-MEC-1, SRB assay, 48 hours exposure; for TGI H-MEC-1: SRB assay, 48 hours exposure
[1] = as above
[2] = read-out: LC50 IGROV, SRB assay, 48 hours exposure
[3] = read-out: LC50 MEL-28, SRB assay, 48 hours exposure
[4] = read-out: LC50 K-562, SRB assay, 48 hours exposure
[5] = read-out: LC50 IGROV-ET, SRB assay, 48 hours exposure
[6] = read-out: LC50 SKOV-3, SRB assay, 48 hours exposure
[7] = read-out: LC50 DU-145, SRB assay, 48 hours exposure
[8] = read-out: LC50 SK-BR-3, SRB assay, 48 hours exposure
[9] = read-out: LC50 A-549, SRB assay, 48 hours exposure
[10] = read-out: LC50 LN-caP, SRB assay, 48 hours exposure
[11] = human, HMEC1 cells, LC50 H-MEC-1, SRB assay, 48 hours exposure

Row | SMILES | GI50 (IGROV-1) [µM] | TGI IGROV (IGROV-1) | GI50 (PANC-1) [µM] | GI50 (SK-MEL-28) [µM] | TGI MEL-28 (SK-MEL-28) | GI50 (K-562) [µM] | TGI K-562 (K-562) | GI50 (IGROV-ET) [µM] | TGI IGROV-ET (IGROV-ET) | GI50 (SK-OV-3) [µM] | TGI SKOV-3 (SK-OV-3) | GI50 (DU-145) [µM] | TGI DU-145 (DU-145) | GI50 (SK-BR-3) [µM] | TGI SK-BR-3 (SK-BR-3) | GI50 (A-549) [µM] | TGI A-549 (A-549) | GI50 (LNCaP) [µM] | TGI LN-caP (LNCaP) | GI50 (HMEC1) [µM] | also measured
1 | COc1ccc(CNc2ccnc3c2c(-c2ccnc(OC)n2)c2ccnc(NCc4ccc(OC)cc4)n23)cc1 [Compound 87] | 17.3 | 1.73E−05 | 17.3 | 17.3 | 1.73E−05 | 17.3 | 1.73E−05 | 17.3 | 1.73E−05 | 17.3 | 1.73E−05 | 18.3 | 1.73E−05 | 17.3 | 1.73E−05 | 17.3 | 1.73E−05 | 17.3 | 1.73E−05 | 7.3 | CC50 (IGROV-1; [2]): 17.3 µM; CC50 (SK-MEL-28; [3]): 17.3 µM; CC50 (K-562; [4]): 17.3 µM; CC50 (IGROV-ET; [5]): 17.3 µM; CC50 (SK-OV-3; [6]): 17.3 µM; CC50 (DU-145; [7]): 17.3 µM; CC50 (SK-BR-3; [8]): 17.3 µM; CC50 (A-549; [9]): 17.3 µM; CC50 (LNCaP; [10]): 17.3 µM; TGI H-MEC-1 (HMEC1; in M (unit assumed)): 1.73E−05; CC50 at 48 h [1, 11]: 17.3 µM
2 | COc1ccc(CNc2ccnc3c2c(-c2ccnc([S+](C)[O-])n2)c2ccnc(NCc4ccc(OC)cc4)n23)cc1 (stereo not drawn) [Compound 86] | ≥ 17.3 | 1.73E−05 | ≥ 17.3 | ≥ 17.3 | 1.73E−05 | ≥ 17.3 | 1.73E−05 | ≥ 17.3 | 1.73E−05 | ≥ 17.3 | 1.73E−05 | ≥ 17.3 | 1.73E−05 | ≥ 17.3 | 1.73E−05 | ≥ 17.3 | 1.73E−05 | ≥ 17.3 | 1.73E−05 | 7.99 | CC50 (IGROV-1; [2]): ≥ 17.3 µM; CC50 (SK-MEL-28; [3]): ≥ 17.3 µM; CC50 (K-562; [4]): ≥ 17.3 µM; CC50 (IGROV-ET; [5]): ≥ 17.3 µM; CC50 (SK-OV-3; [6]): ≥ 17.3 µM; CC50 (DU-145; [7]): ≥ 17.3 µM; CC50 (SK-BR-3; [8]): ≥ 17.3 µM; CC50 (A-549; [9]): ≥ 17.3 µM; CC50 (LNCaP; [10]): ≥ 17.3 µM; TGI H-MEC-1 (HMEC1; in M (unit assumed)): 1.73E−05; CC50 at 48 h [1, 11]: ≥ 17.3 µM
3 | Nc1nccc(-c2c3c(O)ccnc3n3c(N)nccc23)n1 [Variolin B1, variolin B, reference compound] | 1.14 | 2.90E−06 | 1.68 | 1.2 | 2.13E−06 | 1.55 | 3.92E−06 | 1.28 | 2.82E−06 | 1.21 | 3.32E−06 | 0.893 | 2.10E−06 | 0.848 | 2.31E−06 | 0.985 | 2.21E−06 | 0.0539 | 2.10E−06 | 0.273 | CC50 (IGROV-1; read-out: LC50 IGROV): 34.1 µM; CC50 (SK-MEL-28; read-out: LC50 MEL-28): 2.8 µM; CC50 (K-562; read-out: LC50 K-562): 34.1 µM; CC50 (IGROV-ET; read-out: LC50 IGROV-ET): 34.1 µM; CC50 (SK-OV-3; read-out: LC50 SKOV-3): 34.1 µM; CC50 (DU-145; read-out: LC50 DU-145): 19.9 µM; CC50 (SK-BR-3; read-out: LC50 SK-BR-3): 27.7 µM; CC50 (A-549; read-out: LC50 A-549): 3.41 µM; CC50 (LNCaP; read-out: LC50 LN-caP): 1.41 µM; TGI H-MEC-1 (HMEC1): 7.50E−07; CC50 at 48 h [1]: 6.07 µM
